This is an account of results in US6586468B1, “ω-substituted phenyl-prostaglandin E derivatives and drugs containing the same as the active ingredient” (Ono Pharmaceutical Co., Ltd., priority 1998, dated 2003).

In one assay the target is T1, EP3α (Mus musculus, UniProt P30557).
T1 construct: expressed in transfected cells; host or cells: CHO cells (membrane fraction)
T1 sequence (P30557 1-365): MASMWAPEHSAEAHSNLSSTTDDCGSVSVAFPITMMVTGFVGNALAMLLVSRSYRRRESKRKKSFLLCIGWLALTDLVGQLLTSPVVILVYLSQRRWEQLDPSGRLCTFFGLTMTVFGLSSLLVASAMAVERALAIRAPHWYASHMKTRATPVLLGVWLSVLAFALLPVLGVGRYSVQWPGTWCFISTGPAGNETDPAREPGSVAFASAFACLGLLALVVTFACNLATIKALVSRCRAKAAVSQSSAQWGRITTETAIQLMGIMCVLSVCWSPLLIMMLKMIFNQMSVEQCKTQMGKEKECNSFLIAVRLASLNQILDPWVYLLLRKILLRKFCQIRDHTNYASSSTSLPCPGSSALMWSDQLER
Kind of assay: Binding assay using expression CHO cell of prostanoid receptor subtype, [3H]-PGE2 binding inhibition (EP3α). To be noted: membrane fraction of CHO cells expressing mouse EP3α; [3H]-PGE2 2.5 nM; Ki=IC50/(1+([C]/Kd)); read-out: Dissociation Constant Ki (μM) EP3α. Here is the method: (§1) (i) Binding assay using Expression cell of prostanoids receptor subtype
(§2) The preparation of membrane fraction was carried out according to the method of Sugimoto et al. [J. Biol. Chem., 267, 6463-6466 (1992)], using expression CHO cell of the prostanoids receptor subtype (mouse EP1, EP2, EP3α, EP4 and human IP).
(§3) The standard assay mixture containing membrane fraction (0.5 mg/ml) and [^3H]-PGE2 in a final volume of 200 μl was incubated for 1 hour at room temperature. The reaction was terminated by addition of ice-cooled buffer (3 ml). The mixture was filtered through a GF/B glass filter under reduced pressure. The radioactivity associated with the filter was measured by liquid scintillation counting.
(§4) Kd and Bmax values were determined from Scatchard plots [Ann. N. Y. Acad. Sci., 51, 660 (1949)]. Non-specific binding was calculated as the binding in the presence of an excess (2.5 μM) of unlabeled PGE2. In the measurement of ^3H-PGE2 binding inhibitory activity, [3H]-PGE2 (2.5 nM) and various concentrations of the compounds of the present invention were added. The following buffer was used in all reactions.
(§5) Buffer; 10 mM potassium phosphate (pH 6.0), 1 mM EDTA, 10 mM MgCl2, 0.1 M NaCl.
(§6) The dissociation constant Ki (μM) of each compound was calculated by the following equation.

The next assay addresses T2, EP4 (Mus musculus, UniProt P32240).
T2 construct: expressed in transfected cells; host or cells: CHO cells (membrane fraction)
The experiment in a line: Binding assay using expression CHO cell of prostanoid receptor subtype, [3H]-PGE2 binding inhibition (EP4). To be noted: membrane fraction of CHO cells expressing mouse EP4; [3H]-PGE2 2.5 nM; Ki=IC50/(1+([C]/Kd)); read-out: Dissociation Constant Ki (μM) EP4. How it is done:
as §1, §2, §3, §4, §5, §6

T2 sequence (P32240 whole entry): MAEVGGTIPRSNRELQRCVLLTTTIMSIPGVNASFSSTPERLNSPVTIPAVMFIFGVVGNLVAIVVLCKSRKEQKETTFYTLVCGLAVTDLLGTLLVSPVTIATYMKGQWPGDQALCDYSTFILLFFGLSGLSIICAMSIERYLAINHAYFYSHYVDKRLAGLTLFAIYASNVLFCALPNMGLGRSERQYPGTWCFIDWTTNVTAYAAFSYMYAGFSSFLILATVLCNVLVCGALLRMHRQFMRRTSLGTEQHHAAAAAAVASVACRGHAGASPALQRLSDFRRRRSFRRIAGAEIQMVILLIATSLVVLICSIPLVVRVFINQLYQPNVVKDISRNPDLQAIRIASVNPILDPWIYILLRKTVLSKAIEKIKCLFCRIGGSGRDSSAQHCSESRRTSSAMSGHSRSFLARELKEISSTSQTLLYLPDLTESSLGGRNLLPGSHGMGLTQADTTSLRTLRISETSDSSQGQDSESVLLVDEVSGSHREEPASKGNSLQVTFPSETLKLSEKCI

The Ki is a dissociation constant, usually derived from enzyme kinetics or from competition with a known ligand. Take `O=C(O)CCCCCC[C@H]1C(=O)C[C@@H](O)[C@@H]1/C=C/[C@@H](O)Cc1cccc(CCF)c1` [2 (1), (11α,15α)-9-oxo-11,15-Dihydroxy-16-[3-(2-fluoroethyl)phenyl]-17,18,19,20-tetranorprost-13E-enoic Acid]: the values for the Ki on EP3α and at EP4 were 0.12 µM and 0.0016 µM, respectively.

As for `Cc1cc(C[C@H](O)/C=C/[C@H]2[C@H](O)CC(=O)[C@@H]2CCCCCCC(=O)O)ccc1O` [2 (4), (11α,15α)-9-oxo-11,15-dihydroxy-16-(3-methyl-4-hydroxyphenyl)-17,18,19,20-tetranorprost-13E-enoic Acid], the results for the Ki at EP3α and at EP4 were above 10 µM and 0.003 µM, respectively.

For `CCOCc1cccc(C[C@H](O)/C=C/[C@H]2[C@H](O)CC(=O)[C@@H]2C/C=C\CCCC(=O)O)c1` [2 (11), (11α,15α)-9-oxo-11,15-Dihydroxy-16-(3-ethoxymethylphenyl)-17,18,19,20-tetranorprost-5Z,13E-dienoic Acid], the results for the Ki at EP3α and on EP4 were 0.54 µM and 0.01 µM, respectively.

For the molecule `COCc1cccc(C[C@H](O)/C=C/[C@H]2CCC(=O)[C@@H]2C/C=C\CCCC(=O)O)c1` [2 (15), (15α)-9-oxo-15-Hydroxy-16-(3-methoxymethylphenyl)-17,18,19,20-tetranorprost-5Z,13E-dienoic Acid], the Ki stood at 1.4 µM at EP3α and 0.0026 µM at EP4.

For `CCCOCc1cccc(CC(O)/C=C/[C@@H]2[C@@H](C/C=C\CCCC(=O)O)[C@H](F)C[C@H]2O)c1` (stereo partly drawn) [4 (12), (9β,11α,15ξ)-9-Fluoro-11,15-dihydroxy-16-(3-propyloxymethylphenyl)-17,18,19,20-tetranorprost-5Z,13E-dienoic Acid], the Ki came to 0.35 µM at EP3α and 0.0059 µM at EP4.

`CCOCc1cccc(CC(O)/C=C/[C@H]2[C@H](O)CC(=O)[C@@H]2CCc2ccc(C(=O)O)cc2)c1` (stereo partly drawn) [5 (12), (11α,15α)-9-oxo-11,15-Dihydroxy-16-(3-ethoxymethylphenyl)-1,6-(1,4-phenylene)-2,3,4,5,17,18,19,20-octanorprost-13E-enoic Acid]: the Ki amounted to 6 µM on EP3α and 0.008 µM on EP4.

`CCOCc1cccc(C[C@H](O)/C=C/[C@@H]2[C@@H](C/C=C\CCCC(=O)O)[C@H](Cl)C[C@H]2O)c1` [8 (6), (9β,11α,15α)-9-Chloro-11,15-dihydroxy-16-(3-ethoxymethylphenyl)-17,18,19,20-tetranorprost-5Z,13E-dienoic Acid]: the Ki on EP3α stood at 0.04 µM; at EP4, 0.0015 µM.

As for `COCc1cccc(C[C@H](O)/C=C/[C@H]2[C@H](O)CC(=O)[C@@H]2CCCCCCC(=O)O)c1` [Example 2, (11α,15α)-9-oxo-11,15-Dihydroxy-16-(3-methoxymethylphenyl)-17,18,19,20-tetranorprost-13E-enoic Acid], the Ki at EP3α was found to be 0.82 µM; at EP4, 0.006 µM.

As to `COCc1cc(CC(O)/C=C/[C@@H]2[C@@H](C/C=C\CCCC(=O)O)[C@H](Cl)C[C@H]2O)ccc1O` (stereo partly drawn) [Example 4, (9β,11α,15ξ)-9-Chloro-11,15-dihydroxy-16-(3-methoxymethyl-4-hydroxyphenyl)-17,18,19,20-tetranorprost-5Z,13E-dienoic Acid], the Ki at EP3α stood at 3.2 µM; at EP4 it was 0.0036 µM.

With `Cc1ccc(C[C@H](O)/C=C/[C@H]2[C@H](O)CC(=O)[C@@H]2C/C=C\CCCC(=O)O)cc1` [reference compound], the Ki on EP3α stood at 0.011 µM; at EP4 it was 0.032 µM.

In the case of `COc1ccc(C[C@H](O)/C=C/[C@H]2[C@H](O)CC(=O)[C@@H]2C/C=C\CCCC(=O)O)cc1` [reference compound], the Ki on EP3α is 0.048 µM; at EP4 it was 0.067 µM.
